Article PMC5436585 (ACS chemical biology, 2016)

Molecular target: T1, SltB3 (Pseudomonas aeruginosa, UniProt Q9HX28)
T1 sequence (Q9HX28 33-448): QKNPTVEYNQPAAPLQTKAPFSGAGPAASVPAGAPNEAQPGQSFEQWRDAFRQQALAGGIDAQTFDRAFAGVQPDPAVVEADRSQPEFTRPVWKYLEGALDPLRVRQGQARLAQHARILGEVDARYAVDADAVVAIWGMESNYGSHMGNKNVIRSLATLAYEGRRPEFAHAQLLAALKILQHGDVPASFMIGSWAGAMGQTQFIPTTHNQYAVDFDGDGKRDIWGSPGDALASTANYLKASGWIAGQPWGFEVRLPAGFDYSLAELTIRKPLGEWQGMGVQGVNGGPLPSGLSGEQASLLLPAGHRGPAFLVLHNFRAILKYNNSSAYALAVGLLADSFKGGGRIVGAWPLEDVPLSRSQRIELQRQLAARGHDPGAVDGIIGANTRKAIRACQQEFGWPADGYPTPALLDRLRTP
Experiment: LC/MS product quantification, nonlinear regression
Assay type: biochemical
Details: 20 mM HEPES, 0.1 M NaCl, 0.1% Triton X, pH 7.0, 25 °C; 8 nM enzyme

Structure (SMILES): CO[C@@H]1O[C@H](CO)[C@@H](O[C@@H]2O[C@H](CO)[C@@H](O[C@@H]3O[C@H](CO)[C@@H](O[C@@H]4O[C@H](CO)[C@@H](O)[C@H](O)[C@H]4NC(C)=O)[C@H](O[C@H](C)C(=O)N[C@@H](C)C(=O)N[C@H](CCC(=O)N[C@@H](CCC[C@@H](N)C(=O)O)C(=O)N[C@H](C)C(=O)N[C@H](C)C(=O)O)C(=O)O)[C@H]3NC(C)=O)[C@H](O)[C@H]2NC(C)=O)[C@H](O[C@H](C)C(=O)N[C@@H](C)C(=O)N[C@H](CCC(=O)N[C@@H](CCC[C@@H](N)C(=O)O)C(=O)N[C@H](C)C(=O)N[C@H](C)C(=O)O)C(=O)O)[C@H]1NC(C)=O [compound 1]
- Km: 200 ± 20 µM
